Consider one substance from patent publication US8859291B2, “Methods for target molecule detection using siderophores and related compositions” (PerkinElmer LAS, Inc., priority 2004, dated 2014).

This assay deals with deferoxamine-gallium (III) cation capture agent. In words: AlphaScreen proximity assay: binding of biotinylated target molecules to deferoxamine-gallium (III) cation acceptor beads. How it is done:
To prepare desferrioxamine complexed with gallium (III) cation and desferrioxamine complexed with iron (III), as a capture agents attached to a plastic bead support, desferrioxamine was first attached to plastic beads as follows: 5 mg of deferoxamine, 250 ul of raw AlphaScreen™ acceptor beads (at 20 mg/ml), 6 ul of TWEEN™ 20 detergent (at 10% in water), 50 ul of sodium cyanoborohydride (at 25 mg/ml in water) and 695 ul of MES 0.1 M, pH 6.0 were mixed. The mixture was incubated overnight at 37° C. in an agitating water bath. The following morning, 50 ul of carboxymethoxylamine (at 65 mg/ml in water, pH 5) was added, and the mixture was incubated for 1 hour at 37° C. The beads were then centrifuged (30 minutes at 13,000 rpm), washed twice with TRIS buffer (0.1 M, pH 8.0).
To form a complex of desferrioxamine with transition metal cations, the beads were resuspended in HEPES buffer (25 mM, pH 7.4) containing 100 mM gallium (III) or iron (III) chloride. After 1 hour of incubation, the beads were centrifuged, washed twice with HEPES buffer (25 mM pH 7.4) and resuspended in HEPES buffer. Sonication optionally can be used to eliminate aggregates of beads. […]
The ability of deferoxamine-gallium (III) cation capture agents to bind to target molecules was confirmed using AlphaScreen™ assays. […] Alternatively, competition or cleavage assays can be read as signal reduction. […]
A general note: Bead proximity is the source of the signal in Alpha formats.

“biotin-phosphoinositide-3,4,5-trisphosphate [biotin-PIP3]” yielded a concentration at which maximal signal was not yet reached of over 1 µM. Further, the “concentration at which detection starts” value (HEPES buffer, streptavidin donor beads, triplicate) is reported as “around 300 pM”.
